{"source": "patent US20050084507A1", "about": "“Liquid preparations and surfactant/solvent systems” (priority 1999, published 2005)", "origin": "cited, not measured here", "data": [{"smiles": "CCOC1Oc2ccc(OS(C)(=O)=O)cc2C1(C)C", "note": "(stereo not shown) [ethofumesate]", "values": [{"measurement": "solubility in water", "value": 50, "unit": "mg/L"}]}]}
